Test: Displacement of [3H]Cl-DPDPE from delta receptor in guinea pig brain homogenate

Row | SMILES | Ki [nM]
1 | COc1ccc2c3c1O[C@H]1C(=O)CC[C@@]4(NC(=O)CCc5ccc(Cl)cc5)[C@@H](C2)N(CC2CC2)CC[C@]314 [N-cyclopropylmethyl-14beta-[3'-(4'-chlorophenyl)propanamido]-7,8-dihydronorcodeinone] | 5.1
2 | COc1ccc2c3c1O[C@H]1C(=O)CC[C@@]4(NCCCc5ccc(Cl)cc5)[C@@H](C2)N(CC2CC2)CC[C@]314 [N-cyclopropylmethyl-14beta-[3'-(4'-chlorophenyl)propylamino]-7,8-dihydronorcodeinone] | 31
3 | O=C1CC[C@@]2(NCCCc3ccc(Cl)cc3)[C@H]3Cc4ccc(O)c5c4[C@@]2(CCN3CC2CC2)[C@H]1O5 [N-cyclopropylmethyl-14beta-[3'-(4'-chlorophenyl)propylamino]-7,8-dihydronormorphinone] | 1.1
4 | O=C(CCc1ccc(Cl)cc1)N[C@@]12CCC(=O)[C@@H]3Oc4c(O)ccc5c4[C@@]31CCN(CC1CC1)[C@@H]2C5 [N-cyclopropylmethyl-14beta-[3'-(4'-chlorophenyl)propanamido]-7,8-dihydronormorphinone] | 0.6
